The text below walks through data of paper PMC5997408 (Chemical Research in Toxicology, 2017).

As usually defined, the Km is the concentration of substrate that gives half-maximal velocity. For orientation: Ki means a measure of affinity in units of concentration, obtained from inhibition or displacement.

The target of one data set is NQO1 (Homo sapiens, UniProt P15559). The data set is described as follows: Inhibition of recombinant NQO1, DCPIP reduction. Type of data set: biochemical.
Data set [1] has as its target T1, NQO2 (Homo sapiens, UniProt P16083).
T1 sequence (P16083 1-231): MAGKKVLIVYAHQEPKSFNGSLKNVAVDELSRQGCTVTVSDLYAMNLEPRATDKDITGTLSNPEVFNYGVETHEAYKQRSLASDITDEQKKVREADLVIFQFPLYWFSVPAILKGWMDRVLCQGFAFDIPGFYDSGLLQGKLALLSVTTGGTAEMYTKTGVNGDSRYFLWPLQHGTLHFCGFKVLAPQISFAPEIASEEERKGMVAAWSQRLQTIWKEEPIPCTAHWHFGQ
The data set is described as follows: Inhibition of recombinant NQO2, menadione as substrate with BNAH. The class given is biochemical.

Data set [2] concerns the target T1, NQO2. Briefly: Enzyme kinetics of DCPIP reduction by NQO2. Type of data set: biochemical. Particulars: 50 nM NQO2, 100 µM BNAH.
Data set [3] deals with T1, NQO2. Briefly: Inhibition of recombinant NQO2, DCPIP reduction with BNAH. Type of data set: biochemical.
Data set [4] addresses T1, NQO2. Briefly: Inhibition of recombinant NQO2, MTT reduction with BNAH. The class given is biochemical.
A further data set deals with CYP. Particulars: up to 25 μM of tacrine, all four microsomal-activated drugs (data not shown).
In data set [5] the target is T1, NQO2. Conditions: 0.25 μM NQO2, tacrine 0, 5, 10, or 20 μM, 50 μM quinone imine.
For data set [6] the following is noted: cited from earlier work.

Sequence of NQO1 (P15559 whole entry): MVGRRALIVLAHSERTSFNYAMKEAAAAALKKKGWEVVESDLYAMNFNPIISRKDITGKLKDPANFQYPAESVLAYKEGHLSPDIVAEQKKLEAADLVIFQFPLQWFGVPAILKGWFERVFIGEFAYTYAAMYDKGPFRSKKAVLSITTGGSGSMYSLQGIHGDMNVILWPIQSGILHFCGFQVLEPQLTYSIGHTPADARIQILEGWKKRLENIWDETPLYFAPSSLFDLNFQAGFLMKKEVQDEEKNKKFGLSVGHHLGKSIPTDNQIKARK

With `CC(=O)Nc1ccc(O)cc1` [Acetaminophen, acetaminophen], at NQO1 (up to 1 mM), the “inhibition of NQO1 activity” value is given as “did not inhibit”. Also, the “inhibition of NQO2 activity” value at NQO2 [1] (up to 1 mM) is listed as “did not inhibit”.
Regarding `O=C1C(Cl)=CC(=Nc2ccc(O)cc2)C=C1Cl` [DCPIP, 2,6-dichlorophenolindophenol], at NQO2 [2], the Km stood at 25 µM.
On to `O=C(O)Cc1ccccc1Nc1c(Cl)cccc1Cl` [diclofenac], for which, at NQO1, the Ki was 13 µM.
For `Cc1cccc(Nc2ccccc2C(=O)O)c1C` [mefenamic acid], the Ki on NQO1 was determined as 40 µM; at NQO2 [1] it was 66 µM.
Turning to `Nc1c2c(nc3ccccc13)CCCC2` [tacrine], the Ki at NQO1 is 193 ± 1 µM; at NQO2 [3] (Ki value, range over DCPIP and MTT as substrate), 3 to 15 µM; on NQO2 [3] (Ki, recombinant NQO2, substrate DCPIP (25 μM), 100 μM BNAH, mean ± SD (n = 3)) it was 3 ± 1 µM; at NQO2 [4], 15 ± 1 µM. The “Ki fold lower than found for NQO2 inhibition by resveratrol” value at NQO2 [3] (substrate DCPIP) worked out at 9 fold. For the same molecule, the “Ki for NQO2 fold lower compared to the Ki for NQO1” value on NQO2 [3] (substrate DCPIP) worked out at 64 fold. Also, the “effect on CYP metabolism” value with CYP is reported as “no effect”. Besides, the “inhibition of NQO2-mediated reduction of synthetic amodiaquine quinone imine” value at NQO2 [5] is recorded as “concentration-dependent inhibition”. Further, the “plasma concentration of tacrine in humans” value in data set [6] is listed as “around 0.04 μM”.
